# Results reported in ChEMBL document CHEMBL1201862, “PubChem BioAssay data set” (2004).
#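 96-well plates; 48 h exposure; 5 concentrations. Endpoints by linear interpolation between flanking doses. Not reached: highest tested concentration assigned. GI50 is the concentration that inhibits growth by half.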 Active and inactive are the calls of the source. Rule as the data show it: active = GI50 up to about 1.1 µM and inactive = higher.
# Tests used:
# Assay in all cases: inhibition of tumour cell growth, NCI panel, 48 h
# 786-0 = tested on: 786-0
# CCRF-CEM = tested on: CCRF-CEM
# HOP-62 = tested on: HOP-62
# SF-268 = tested on: SF-268
# SR = tested on: SR
# SF-539 = tested on: SF-539
# ACHN = tested on: ACHN
# SK-MEL-2 = tested on: SK-MEL-2
# TK-10 = tested on: TK-10
# HL-60 = tested on: HL-60
# K562 = tested on: K562
# KM12 = tested on: KM12
# T47D = tested on: T47D
# SK-MEL-5 = tested on: SK-MEL-5
# HOP-92 = tested on: HOP-92
# OVCAR-3 = tested on: OVCAR-3
# OVCAR-4 = tested on: OVCAR-4
# NCI-H460 = tested on: NCI-H460
# SF-295 = tested on: SF-295
# IGROV-1 = tested on: IGROV-1
# A498 = tested on: A498
# COLO 205 = tested on: COLO 205
# SNB-19 = tested on: SNB-19
# MDA-MB-231 = tested on: MDA-MB-231
# M14 = tested on: M14
# SNB-75 = tested on: SNB-75
# NCI/ADR-RES = tested on: NCI/ADR-RES
# UO-31 = tested on: UO-31
# RPMI-8226 = tested on: RPMI-8226
# CAKI-1 = tested on: CAKI-1
# Hs-578T = tested on: Hs-578T
# MDA-MB-435 = tested on: MDA-MB-435
# PC-3 = tested on: PC-3
# MDA-N = tested on: MDA-N
# DU-145 = tested on: DU-145
# LOX IMVI = tested on: LOX IMVI
# NCI-H23 = tested on: NCI-H23
# NCI-H522 = tested on: NCI-H522
# MOLT-4 = tested on: MOLT-4
# NCI-H226 = tested on: NCI-H226
# OVCAR-8 = tested on: OVCAR-8
# UACC-62 = tested on: UACC-62
# OVCAR-5 = tested on: OVCAR-5
# MCF7 = tested on: MCF7
# U-251 = tested on: U-251
# HCC 2998 = tested on: HCC 2998
# SW-620 = tested on: SW-620
# HCT-15 = tested on: HCT-15
# BT-549 = tested on: BT-549
# HCT-116 = tested on: HCT-116
# SN12C = tested on: SN12C
# EKVX = tested on: EKVX
# SK-OV-3 = tested on: SK-OV-3
# UACC-257 = tested on: UACC-257
# RXF 393 = tested on: RXF 393
# SK-MEL-28 = tested on: SK-MEL-28
# Malme-3M = tested on: Malme-3M
# A549 = tested on: A549
# HT-29 = tested on: HT-29
compound,measurement,setting,value
O=C(OCC(OC(=O)c1ccccc1)C1CC(C(O)C2CCCCC2)C(=O)O1)c1ccccc1 (configuration not stated),GI50,786-0,> 100 µM (inactive)
same,GI50,CCRF-CEM,22.5 µM (inactive)
same,GI50,HOP-62,49.5 µM (inactive)
same,GI50,SF-268,91.8 µM (inactive)
same,GI50,SR,20.1 µM (inactive)
same,GI50,SF-539,25.1 µM (inactive)
same,GI50,ACHN,> 100 µM (inactive)
same,GI50,SK-MEL-2,> 100 µM (inactive)
same,GI50,TK-10,> 100 µM (inactive)
same,GI50,HL-60,16.4 µM (inactive)
same,GI50,K562,21.4 µM (inactive)
same,GI50,KM12,41.8 µM (inactive)
same,GI50,T47D,37.2 µM (inactive)
same,GI50,SK-MEL-5,17.3 µM (inactive)
same,GI50,HOP-92,> 100 µM (inactive)
same,GI50,OVCAR-3,35.3 µM (inactive)
same,GI50,OVCAR-4,32.7 µM (inactive)
same,GI50,NCI-H460,25.9 µM (inactive)
same,GI50,SF-295,86.7 µM (inactive)
same,GI50,IGROV-1,32.2 µM (inactive)
same,GI50,A498,> 100 µM (inactive)
same,GI50,COLO 205,45.9 µM (inactive)
same,GI50,SNB-19,59 µM (inactive)
same,GI50,MDA-MB-231,> 100 µM (inactive)
same,GI50,M14,63.7 µM (inactive)
same,GI50,SNB-75,51.4 µM (inactive)
same,GI50,NCI/ADR-RES,23.2 µM (inactive)
same,GI50,UO-31,> 100 µM (inactive)
same,GI50,RPMI-8226,24.2 µM (inactive)
same,GI50,CAKI-1,> 100 µM (inactive)
same,GI50,Hs-578T,> 100 µM (inactive)
same,GI50,MDA-MB-435,> 100 µM (inactive)
same,GI50,PC-3,45.7 µM (inactive)
same,GI50,MDA-N,> 100 µM (inactive)
same,GI50,DU-145,> 100 µM (inactive)
same,GI50,LOX IMVI,37.4 µM (inactive)
same,GI50,NCI-H23,> 100 µM (inactive)
same,GI50,NCI-H522,22.2 µM (inactive)
same,GI50,MOLT-4,22 µM (inactive)
same,GI50,NCI-H226,87.7 µM (inactive)
same,GI50,OVCAR-8,49.3 µM (inactive)
same,GI50,UACC-62,> 100 µM (inactive)
same,GI50,OVCAR-5,> 100 µM (inactive)
same,GI50,MCF7,31.7 µM (inactive)
same,GI50,U-251,71.6 µM (inactive)
same,GI50,HCC 2998,47.9 µM (inactive)
same,GI50,SW-620,42.3 µM (inactive)
same,GI50,HCT-15,43.2 µM
same,GI50,BT-549,53 µM (inactive)
same,GI50,HCT-116,31.6 µM (inactive)
same,GI50,SN12C,47.6 µM (inactive)
same,GI50,EKVX,> 100 µM (inactive)
same,GI50,SK-OV-3,> 100 µM (inactive)
same,GI50,UACC-257,> 100 µM (inactive)
same,GI50,RXF 393,> 100 µM (inactive)
COc1ccc(NC(=O)CC(=O)n2nc(C)c(/N=N/c3cccc(C)c3)c2C)cc1,GI50,786-0,> 100 µM (inactive)
same,GI50,CCRF-CEM,> 100 µM (inactive)
same,GI50,SK-MEL-28,> 100 µM (inactive)
same,GI50,HOP-62,37.6 µM (inactive)
same,GI50,SF-268,> 100 µM (inactive)
same,GI50,SR,91.6 µM (inactive)
same,GI50,SF-539,> 100 µM (inactive)
same,GI50,ACHN,> 100 µM (inactive)
same,GI50,SK-MEL-2,> 100 µM (inactive)
same,GI50,TK-10,> 100 µM (inactive)
same,GI50,HL-60,> 100 µM (inactive)
same,GI50,KM12,> 100 µM (inactive)
same,GI50,T47D,> 100 µM (inactive)
same,GI50,Malme-3M,> 100 µM (inactive)
same,GI50,SK-MEL-5,> 100 µM (inactive)
same,GI50,HOP-92,69.8 µM (inactive)
same,GI50,OVCAR-3,> 100 µM (inactive)
same,GI50,OVCAR-4,> 100 µM (inactive)
same,GI50,NCI-H460,> 100 µM (inactive)
same,GI50,SF-295,> 100 µM (inactive)
same,GI50,A498,56.6 µM (inactive)
same,GI50,COLO 205,> 100 µM (inactive)
same,GI50,SNB-19,> 100 µM (inactive)
same,GI50,MDA-MB-231,> 100 µM (inactive)
same,GI50,M14,> 100 µM (inactive)
same,GI50,SNB-75,40.8 µM (inactive)
same,GI50,NCI/ADR-RES,> 100 µM (inactive)
same,GI50,UO-31,> 100 µM (inactive)
same,GI50,RPMI-8226,91.8 µM (inactive)
same,GI50,CAKI-1,> 100 µM (inactive)
same,GI50,Hs-578T,> 100 µM (inactive)
same,GI50,MDA-MB-435,> 100 µM (inactive)
same,GI50,PC-3,> 100 µM (inactive)
same,GI50,MDA-N,> 100 µM (inactive)
same,GI50,DU-145,> 100 µM (inactive)
same,GI50,LOX IMVI,> 100 µM (inactive)
same,GI50,NCI-H23,> 100 µM (inactive)
same,GI50,A549,> 100 µM (inactive)
same,GI50,NCI-H522,> 100 µM (inactive)
same,GI50,MOLT-4,> 100 µM (inactive)
same,GI50,NCI-H226,> 100 µM (inactive)
same,GI50,OVCAR-8,> 100 µM (inactive)
same,GI50,UACC-62,> 100 µM (inactive)
same,GI50,OVCAR-5,> 100 µM (inactive)
same,GI50,MCF7,> 100 µM (inactive)
same,GI50,U-251,54.1 µM (inactive)
same,GI50,HCC 2998,> 100 µM (inactive)
same,GI50,SW-620,> 100 µM (inactive)
same,GI50,HCT-15,> 100 µM
same,GI50,BT-549,> 100 µM (inactive)
same,GI50,HCT-116,> 100 µM (inactive)
same,GI50,SN12C,> 100 µM (inactive)
same,GI50,HT-29,> 100 µM (inactive)
same,GI50,EKVX,31.4 µM (inactive)
same,GI50,SK-OV-3,18.6 µM (inactive)
same,GI50,UACC-257,> 10 µM (inactive)
same,GI50,RXF 393,> 100 µM (inactive)
